Format in all cases: cell-based, rat
For assay [1], the system named is myelin genes Mbp, Mog and Plp and transcription elements Sp1, Sox10 and Purα in OPCs. Put plainly: qPCR analysis of myelin gene expression in OPCs treated with AA. The conditions noted are these: AA 2.5 μM, 3 hours. The procedure:
Mbp=myelin basic protein, Plp=proteolipoprotein, Mog=myelin oligodendrocyte glycoprotein.
(§1) The effect of AA on the expression of myelin genes, MBP, and IL-33 was examined. […] Natarajan et al., PLOS One, 11(3):e0152163 (2016); Sriram et al., Neurology, Abstract presented at the American Academy of Neurology, 2016 (2016). The studies were done in OPCs obtained from rat pups. OPCs were treated with AA (2.5 μM) for 3 hours and message levels were quantified using qPCR analysis. OPCs treated with AA induced the major myelin genes Mbp, Mog and Plp.
(In general: Real-time PCR tracks product formation cycle by cycle.)

For another assay, the system named is IL-33 expression in OPCs. Briefly: q-PCR on the induction of IL-33 in OPCs cultured with AA. Conditions: 3 h, relative to GAPDH, vehicle = 1.00. The procedure: as §1
The expression of IL-33 induced by AA in OPCs was also examined. […] (FIG. 3). The data is expressed as fold change compared to the control protein GAPDH.

In the next assay the test system is MBP in OPCs. Briefly: Western blot of MBP in OPCs cultured with AA for 10 days. As to the method: To further verify the ability of AA to induce MBP protein synthesis, 4×10^6 OPCs were cultured in poly-D lysine coated culture dishes with and without AA for 10 days. The AA concentrations that were studied were as follows: 1, 2.5, 5, 7.5, and 10 μM. The growth medium was changed every three days. […] Upon culture in vitro, OPCs differentiated and became myelin expressing cells, a process which took about 7-14 days.
On the technique in general: Immunoblotting shows a protein as a band on a membrane.

Another assay deals with IL-33 protein in OPCs. Put plainly: Western blot of IL-33 protein in OPCs (nuclear extracts) cultured with AA. The conditions noted are these: for increase in the protein level of IL-33: OPCs. The procedure: FIG. 5 (top) provides the results of Western blot studies showing increased expression of IL-33 in the presence of AA in OPCs. […] Because IL-33 is mainly in the nucleus, the Wester blots were done with nuclear extracts and Lamin was used as the control.
In addition, at a dose of 2.5 μM of AA, there was a 1.8 fold increase in the protein level of IL-33, and at a dose of 7.5 μM of AA, there was a 3.1 fold increase in the protein level of IL-33 (FIG. 5).

The subject of the next assay is OPCs. Put plainly: Maturation of OPCs to mature oligodendrocytes, MBP staining after 14 days culture with AA. The conditions noted are these: AA 1 μM. As to the method:
FIG. 6 provides images showing the increased differentiation of OPCs to mature oligodendrocytes following culture with AA (Ana). OPCs were isolated from rat pups and were cultured with AA where 1 μM of AA was added to the culture every other day for 14 days. At the end of the experiment, the cells were stained and the amount of MBP was assessed using ImagJ software.
The expression of MBP, a marker for myelin maturation in OPCs, was investigated in the presence and absence of AA (1 μM) following culture with AA for 14 days.

For the compound `CCCCCCCCCCCCCCCc1cccc(O)c1C(=O)O` [AA, anacardic acid], the “expression of major myelin genes Mbp, Mog and Plp (message levels, qPCR)” value in assay [1] is reported as “induced”. Besides, in assay [1], the “expression of transcription elements Sp1, Sox10 and Purα that bind the Mbp promoter (qPCR)” value was “upregulation”. Moreover, the “Fold change of IL-33 expression” value in the assay on IL-33 expression in OPCs (AA 2.5 μM) is on record as 8.54 fold; in the assay with IL-33 expression in OPCs (AA 5 μM) it was 4.77 fold. The “increase in the expression of MBP (image analysis, FIG. 4)” value with MBP in OPCs (OPCs cultured with AA, concentration not given) was found to be 2.4 fold. Besides, in the assay with MBP in OPCs (OPCs, AA 1, 2.5, 5, 7.5 and 10 μM, 10 days), the “level of MBP (Western blot)” value is “increased the level of MBP in a dose dependent manner”. Further, the “increase in IL-33 protein expression (image analysis of gels, FIG. 5)” value with IL-33 protein in OPCs (OPCs nuclear extracts, Lamin control, concentration not given) is 1.6 fold. In addition, the “increase in the protein level of IL-33” value in the assay on IL-33 protein in OPCs (AA 2.5 μM) came to 1.8 fold; with IL-33 protein in OPCs (AA 7.5 μM) it was 3.1 fold. In the assay with OPCs, the “increase in the expression of MBP vs normal growth medium” value came out at 2.1 fold.
